US7531557B2, “Diaryl ethers as opioid receptor antagonists” (Eli Lilly and Company, priority 2002, dated 2009)

Legend:
Diet Induced Obese Rat = assay: Indirect calorimetry assay (food consumption, energy balance); type: in vivo; settings: for Energy Balance Diet Induced Obese Rat: test dose 3 mg/kg, energy balance = caloric intake minus utilization
Procedure: Indirect Calorimetry Assay
Twenty-four-hour energy expenditure (EE) and respiratory quotient (RQ) were measured by indirect calorimetry using an open circuit calorimetry system (Oxymax, Columbus Instruments Int. Corp., USA). RQ is the ratio of the volume of CO2 produced (VCO2) to the volume of O2 consumed (VO2). EE was calculated as the product of calorific value of oxygen (CV) and VO2 per kilogram of body weight, where CV=3.815+1.232 (RQ). Total calories expended were calculated to determine daily fuel utilization. To calculate the proportion of protein, fat and carbohydrate that is used during that 24-hour period, we used Flatt's proposal (see, Flatt J P 1991 Assessment of daily and cumulative carbohydrate and fat balances in mice. J Nutr Biochem 2:193-202.) and formulae as well as other derived constants (see Elia M, Livesey G 1992 Energy expenditure and fuel selection in biological systems: the theory and practice of calculations based on indirect calorimetry and tracer methods. World Rev Nutr Diet 70:68-131.). Food consumption over the 24-hour period was also measured. […] Results obtained for a sample of compounds of the invention with the indirect calorimetry assay are shown below in Table 4.

Rat = assay: Acute feeding assay (Rat Obesity assay); type: in vivo
Source text: Acute Feeding Assay (Rat Obesity Assay)
The efficacy of compounds of the present invention has been further verified by the results of a Rat Obesity assay shown in Table 3.

[1] = former clinical trial candidate, development discontinued; cited from earlier work
[2] = tested on: dietary induced obese rats; settings: cited from earlier work
[3] = tested on: mu, delta and kappa receptors in rat striatum/nucleus accumbens; assay: Ex-vivo receptor binding of 3H-diprenorphine in rat brain after oral dosing; settings: 7 mg/kg p.o., 6 hours after administration, striatum/nucleus accumbens homogenate, versus vehicle

4-(4-Pentylaminomethyl-phenoxy)-benzamide [Example 290]
Inhibition of Feeding Diet Induced Obese Rat Minimum Effective Dose (MED) (Diet Induced Obese Rat; p.o., lowest dose with food consumption over 24 hours significantly different from vehicle): 3 mg/kg | Energy Balance Diet Induced Obese Rat (Diet Induced Obese Rat; p.o.): -65 kcal/kg/day | Doses in ug/kg to achieve effective inhibition (Rat): 3 µg/kg

C[C@H]1CN(CC[C@H](O)C2CCCCC2)CC[C@@]1(C)c1cccc(O)c1 [LY255582, reference compound]
minimal effective dose (Diet Induced Obese Rat; Rattus norvegicus, po, lowest dose with food consumption over 24 hours significantly different from vehicle, read-out: Inhibition of Feeding Diet Induced Obese Rat Minimum Effective Dose (MED)): 1 mg/kg | Energy Balance Diet Induced Obese Rat (Diet Induced Obese Rat; p.o.): -36 kcal/kg/day | human oral bioavailability [1]: lack of satisfactory human oral bioavailability | energy balance and total body mass ([2]; chronic treatment, dietary induced obese rats fed a high fat diet): sustained negative energy balance leading to a decrease in total body mass | food intake ([2]; oral administration, acute and chronic treatment in rats): robust reductions in food intake | Ex Vivo Binding [3H]-Diprenorphine % Inhibition of at 6 hours 7 mg/kg of test compound [3]: >40%
